Measurements published in patent US20110160303A1, “N-ALKYLCARBONYL-AMINO ACID ESTER AND N-ALKYLCARBONYL-AMINO LACTONE COMPOUNDS AND THEIR USE” (Edward Tak WEI, priority 2005, published 2011).

Key:
[1] = Octanol/water partition coefficient; assay type: physicochemical
Description: The octanol/water partition coefficients (given in log P units) for a number of compounds were determined and are shown in Table 7, together with the threshold for cooling on the tongue tested at 40 mM. […] A longer duration of action was not precisely matched with log P values.

skin above the upper lip = assay: Cooling sensation on facial skin, ointment applied to skin above the upper lip; assay type: in vivo, human; set-up: key to refreshing cooling and absence of skin irritation or eye irritation (“perfect cool”): (*) denotes compounds with refreshing cooling and absence of skin irritation or eye irritation after facial skin or periorbital applications; a “perfect cool.”; conditions: for Duration of Skin Cooling: 40 mM (1% wt/vol) ointment; for Duration of Skin Cooling / Duration of Action On-Off (minutes): On (onset) / Duration of Action On-Off (minutes): duration (offset minus onset) / Duration of Action On-Off (minutes): Off (offset): skin above upper lip; for Duration of Action On-Off (minutes): On (onset): 40 mM (~1% wt/vol) Aquaphor ointment, 40 to 70 mg, time to reach 2 units of coolness; for Duration of Action On-Off (minutes): duration (offset minus onset) / Duration of Action On-Off (minutes): Off (offset): 40 mM Aquaphor ointment; for Duration of Action On-Off (minutes): Off (offset): time when coolness drops below 2 units; for refreshing cooling and absence of skin irritation or eye irritation (“perfect cool”): after facial skin or periorbital applications
Excerpt: A reliable place for topical application is the skin above the upper lip (above the vermilion border of the lips), on the philtrum, lateral to the philtrum until the nasolabial folds, and on the lower nostrils (subnasale). This part of the face is known to be densely innervated with cold receptors, second only to the surfaces of the eyeball and anogenitalia. A second location is on or below the malar eminence (cheekbone). The skin above the cheekbone is thicker than above the lips, and therefore has a higher threshold for activation. At both loci, tingling, cool and cold sensations in the skin may be experienced and rated for time of onset and intensity.
The intensity of the subjective skin sensation is rated as 0, 1, 2 or 3 with: 0 as no change; 1 as slight coolness, cold, or tingling; 2 as clear-cut signal of coolness, cold, or tingling; and 3 as robust cooling or cold. The intervals for recording sensations are 5 to 10 minutes, until two successive zeroes are obtained. The results (shown in FIGS. 1 and 2) are averaged values of 4 to 6 separate trials in the same individual. The data are plotted using SigmaPlot® (Systat Software, Point Richmond Calif.) and a smoothing function with a negative exponential was used for analysis and statistical fit of the results. Confirmatory trials of cooling action of the long-acting NACE compounds were obtained in 2 to 4 individuals but not quantified for some because of the large number of chemicals that were evaluated.
(§1) The onset of drug action is taken as the time to reach 2 units of coolness intensity, and offset of drug action is the time when coolness intensity drops below 2, after previously surpassing 2 units. The duration of cooling action is defined as the offset time minus the onset time. […] The quality of the sensation is noted, for example, as pure refreshing coolness, or if the sensation is accompanied by irritation (stinging or burning). The quality of the sensation is not rated for intensity.
For bioassay on the skin, approximately 30 mg was stirred and dissolved in 3 g of warm liquid Aquaphor® ointment to a yield a 40 mM (˜1% wt/vol) ointment. The exact amount was adjusted so that the molar equivalent was about 35 to 40 mM. After cooling, 40 to 70 mg of the solid ointment was placed on the tip of a plastic stick and applied to the skin above the upper lip, on the philtrum, and lateral to the philtrum, up to the nasolabial folds, of test subjects and the onset and duration of cooling sensations noted.
The intensity of the subjective skin sensation was rated as 0, 1, 2 or 3 with: 0 as no change; 1 as slight coolness, cold, or tingling; 2 as clear signal of coolness, cold, or tingling; and 3 as robust cooling or cold. The intervals for recording sensations were 5 to 10 minutes, until two successive zeroes were obtained. The results (shown in FIGS. 1 and 2) are averaged values of 4 to 6 separate trials in the same individual. The data are plotted using SigmaPlot® (Systat Software, Point Richmond, Calif., USA) and a smoothing function with a negative exponential was used for analysis and statistical fit of the results.
as §1, with “was” for “is”, “was also noted: such” for “is noted, for example,”
Test compounds were singly applied to the skin above the upper lips at a 40 to 70 mg dose of a 1% wt/vol ointment.

oral cavity = assay: Oral cavity test, substance placed on dorsal surface of the tongue; assay type: in vivo, human; conditions: Study 7, 2 mg per dose
Description: The subject is instructed to close and hold the substance in the mouth for at least 10 seconds and not to swallow. The description of sensations is then recorded at 5 minute intervals.
The compounds of Formula (1) and (2) are white crystalline solids at room temperatures. These compounds were tested as such, or mixed 1:1 with powdered or granulated sugar. The test substances were applied at 1 to 5 mg on the mid-point of the dorsal surface of the tongue using a metal spatula or a plastic applicator. After depositing the test substance on the tongue, the subject was instructed to keep the mouth closed and allow the fluids of the mouth to inter-mix with the test substance and to distribute it to the back of the mouth (oropharynx). The presence and duration of subjective sensations from the mouth was then noted.
In normal subjects, the effects of the D-Ala methyl and ethyl ester compounds falling within Formula (1) ((R)-2-[((1R,2S,5R)-2-isopropyl-5-methyl-cyclohexanecarbonyl)-amino]-propionic acid methyl or ethyl ester)) were examined. Three doses of 1, 2 and 4 mg per application were examined and compared to a similar dose of the L-Ala methyl or ester analog ((S)-2-[((1R,2S,5R)-2-isopropyl-5-methyl-cyclohexanecarbonyl)-amino]-propionic acid methyl or ethyl ester). At the 2 or 4 mg dose, all compounds produced pleasant and robust cooling sensations on the tongue, extending down to the back of throat, and lasted for about 30 minutes and longer. The onset effect was usually within 30 seconds of application.

tongue = assay: Threshold for cooling on the tongue; assay type: in vivo, human; conditions: threshold for cooling on the tongue
Description: Watson et al. (U.S. Pat. No. 4,178,459) tested the properties of N-substituted p-menthane carboxamides on volunteers by putting filter paper (1×1 cm), impregnated with a known amount of compound, onto the dorsal surface of the tongue of the test subject. After 30 seconds, the subject was required to report presence or absence of a cooling effect. […] The average threshold of (−)-menthol for 6 subjects was 0.25 μg, but there was a 100-fold variation in individual sensitivity. As noted above, coolness signals detected from the dorsal surface of the tongue may be confounded by gustatory, olfactory, and other variables, as well as by dilution from saliva. The octanol/water partition coefficients (given in log P units) for a number of compounds were determined and are shown in Table 7, together with the threshold for cooling on the tongue tested at 40 mM. […] A longer duration of action was not precisely matched with log P values.

| logP [1] | Log P [1] | Structure (SMILES) | Duration of Skin Cooling (skin above the upper lip) | Duration of Action On-Off (minutes): On (onset) (skin above the upper lip) | Duration of Action On-Off (minutes): duration (offset minus onset) (skin above the upper lip) | Duration of Action On-Off (minutes): Off (offset) (skin above the upper lip) | refreshing cooling and absence of skin irritation or eye irritation (“perfect cool”) (skin above the upper lip) | cooling sensation at the back of the throat (oral cavity) | Threshold tongue (tongue) |
| --- | --- | --- | --- | --- | --- | --- | --- | --- | --- |
| 2.5 | – | CC(C)[C@@H]1CC[C@@H](C)C[C@H]1C(=O)N[C@@H]1CCOC1=O [D-Hsl, (1R,2S,5R)-2-isopropyl-5-methyl-cyclohexanecarboxylic acid ((R)-2-oxo-tetrahydro-furan-3-yl)-amide] | 1.3 h | 2 min | 78 min | 80 min | D-Hsl (*) | robust and prolonged cooling | – |
| – | 2.8 | COC(=O)C(C)NC(=O)C1CC(C)CCC1C(C)C [L-Ala Me Ester] | 1.3 h | 1 min | 79 min | 80 min | – | – | 0.6 µg |
| – | 4.1 | CC1CCC(C(C)C)C(C(=O)NC(C)C)C1 (stereo not drawn) [WS-10, reference compound] | 0.3 h | 6 min | 19 min | 25 min | – | – | 0.4 µg |
| 2.5 | – | CC(C)[C@@H]1CC[C@@H](C)C[C@H]1C(=O)NC1CCOC1=O (mixture of isomers) [racemic Hsl, (1R,2S,5R)-2-isopropyl-5-methyl-cyclohexanecarboxylic acid (2-oxo-tetrahydro-furan-3-yl)-amide] | 1.4 h | 2 min | 84 min | 86 min | racemic Hsl (*) | robust and prolonged cooling | – |
| – | 5.8 | CCOc1ccc(NC(=O)C2CC(C)CCC2C(C)C)cc1 (stereo not drawn) [CPS-306] | not active | – | inactive | – | – | – | – |
| – | 4.6 | CCC(C)NC(=O)C1CC(C)CCC1C(C)C (stereo not drawn) [WS-34, reference compound] | not active | – | inactive | – | – | – | 0.7 µg |
| 3.3 | – | COC(=O)C1CCCN1C(=O)[C@@H]1C[C@H](C)CC[C@H]1C(C)C (stereo partly drawn) [Pro Me Ester] | not active | – | not active | – | – | – | – |
| 2.5 | – | CC(C)[C@@H]1CC[C@@H](C)C[C@H]1C(=O)N[C@H]1CCOC1=O [L-Hsl, (1R,2S,5R)-2-isopropyl-5-methyl-cyclohexanecarboxylic acid (S)-(2-oxo-tetrahydro-furan-3-yl)-amide] | 1.4 h | 2 min | 85 min | 87 min | L-Hsl (*) | robust and prolonged cooling | – |
| – | 6.3 | CCCOc1ccc(NC(=O)C2CC(C)CCC2C(C)C)cc1 (stereo not drawn) [CPS-310] | not active | – | inactive | – | – | – | – |
| – | 3.1 | CCOC(=O)CCNC(=O)C1CC(C)CCC1C(C)C (stereo not drawn) [β-Ala Et Ester] | 1.4 h | 3 min | 87 min | 90 min | – | – | 1.5 µg |
| – | 2.2 | COC(=O)CCC(NC(=O)C1CC(C)CCC1C(C)C)C(=O)OC (stereo not drawn) [Glu(OMe) Me Ester] | not active | – | not active | – | – | – | – |
| – | 2.4 | COC(=O)CNC(=O)C1CC(C)CCC1C(C)C (stereo not drawn) [Gly Me Ester (WS-31), reference compound] | 0.3 h | 5 min | 20 min | 25 min | – | – | 0.6 µg |
| – | 5.0 | COc1ccc(NC(=O)C2CC(C)CCC2C(C)C)c(OC)c1 (stereo not drawn) [CPS-309] | 0.6 h | 13 min | 37 min | 50 min | – | – | – |
| – | 6.9 | CCCCOc1ccc(NC(=O)C2CC(C)CCC2C(C)C)cc1 (stereo not drawn) [CPS-308] | not active | – | inactive | – | – | – | – |
| – | 3.1 | CCOC(=O)C(C)NC(=O)C1CC(C)CCC1C(C)C [L-Ala Et Ester] | 0.7 h | 8 min | 44 min | 52 min | – | – | 0.4 µg |
| – | 4.2 | COC(=O)C(NC(=O)C1CC(C)CCC1C(C)C)C(C)C [L-Val Me Ester] | not active | – | not active | – | – | – | – |
